Measured values published in patent US6534447B1, “Herbicidal pyridine compounds” (BASF Aktiengesellschaft, priority 1999, dated 2003).

What was measured:
Format in all cases: in vivo
[1] = system: Triticum aestivum (TRZAW, winter wheat); assay: Pre-emergence herbicidal evaluation (crop); conditions: 3 weeks after treatment
Description: (§1) The pre-emergence herbicidal activity of the compounds of the present invention is exemplified by the following test in which the seeds of a variety of monocotyledonous and dicotyledonous plants are seperately mixed with potting soil and planted on top of approximately one inch of soil in separate post. After planting, the pots are sprayed with the selected aqueous acetone solution. containing test compound in sufficient quantity to provide the equivalent of about 0.025 to 0.4 kg per hectare of test compound per pot. The treated pots are then placed on greenhouse benches, watered and cared for in accordance with conventional greenhouse procedures. From 3 weeks after treatment, the tests are terminated and each pot is examined and rated according to the rating system set forth below. [table] [table]

[2] = system: Glycine max (GLXMA, soyabeans); assay: Pre-emergence herbicidal evaluation (crop); conditions: 3 weeks after treatment
Description: as §1

Zea mays (ZEAMX, maize) = assay: Pre-emergence herbicidal evaluation (crop); conditions: 3 weeks after treatment
Description: as §1

eight weed species = assay: Pre-emergence herbicidal evaluation, overall weed control; conditions: crop selective dose of 0.1 kg/ha
Description: as §1, with “below.” for “below. [table] [table]”
Thus, there is evidence for the good potential of the compounds of the invention for excellent cross spectrum control of both grasses and broadleaf weeds in key crops.

[3] = system: Dolium multiflorum (LOLMU, ryegrass); assay: Post-emergence herbicidal evaluation; conditions: rate 0.100 kg/ha, 3 weeks after treatment
Experimental: (§2) These acetone solutions are diluted with water and the resulting formulations applied at dosage levels equivalent of about 0.025 to 0.4 kg per hectare of test compound per pot. After spraying the plants are placed on greenhouse benches and are cared for in the usual manner, commensurate with conventional greenhouse practices. From 3 weeks after treatment, the seedling plants are examined and rated according to the rating system provided above. A rating 0 indicates growth as untreated control, a rating 9 indicates death.

[4] = system: Ipomoea hederacea (IPOHE, morning glory); assay: Post-emergence herbicidal evaluation; conditions: 3 weeks after treatment
Experimental: as §2

[5] = system: Echinochloa grus galli (ECHCG, barnyard grass); assay: Post-emergence herbicidal evaluation; conditions: 3 weeks after treatment
Experimental: as §2

[6] = system: Abutilon theophrasti (ABUTH, velvetleaf); assay: Post-emergence herbicidal evaluation; conditions: 3 weeks after treatment
Experimental: as §2

[7] = system: Matricaria inodora (MATIN, mayweed); assay: Post-emergence herbicidal evaluation; conditions: 3 weeks after treatment
Experimental: as §2

[8] = system: Galium aparine (GALAP, cleaver); assay: Post-emergence herbicidal evaluation; conditions: 3 weeks after treatment
Experimental: as §2

[9] = system: Setaria viridis (SETVI, green foxtail); assay: Post-emergence herbicidal evaluation; conditions: 3 weeks after treatment
Experimental: as §2

[10] = system: Alopecurus myosuroides (ALOMY, black grass); assay: Post-emergence herbicidal evaluation; conditions: 3 weeks after treatment
Experimental: as §2

[11] = system: Ipomoea hederacea (IPOHE, morning glory); assay: Pre-emergence herbicidal evaluation; conditions: 3 weeks after treatment
Description: as §1

[12] = system: Echinochloa grus galli (ECHCG, barnyard grass); assay: Pre-emergence herbicidal evaluation; conditions: 3 weeks after treatment
Description: as §1

[13] = system: Abutilon theophrasti (ABUTH, velvetleaf); assay: Pre-emergence herbicidal evaluation; conditions: 3 weeks after treatment
Description: as §1

[14] = system: Stellaria media (STEME, chickweed); assay: Pre-emergence herbicidal evaluation; conditions: 3 weeks after treatment
Description: as §1

[15] = system: Matricaria inodora (MATIN, mayweed); assay: Pre-emergence herbicidal evaluation; conditions: 3 weeks after treatment
Description: as §1

[16] = system: Galium aparine (GALAP, cleaver); assay: Pre-emergence herbicidal evaluation; conditions: 3 weeks after treatment
Description: as §1

[17] = system: Setaria viridis (SETVI, green foxtail); assay: Pre-emergence herbicidal evaluation; conditions: 3 weeks after treatment
Description: as §1

[18] = system: Alopecurus myosuroides (ALOMY, black grass); assay: Pre-emergence herbicidal evaluation; conditions: 3 weeks after treatment
Description: as §1

[19] = system: Stellaria media (STEME, chickweed); assay: Post-emergence herbicidal evaluation; conditions: 3 weeks after treatment
Experimental: as §2

Cc1cc(OCCSC(F)(F)F)nc(Oc2cc(C(F)(F)F)nn2C)c1 [Example 1, 2-(1-methyl-3-trifluoromethylpyrazol-5-yloxy)-6-(2-trifluoromethylthioethoxy)-4-methylpyridine]
6 (6 - Herbicidal effect): ECHCG rating ([5]; rate 0.025 kg/ha) | ABUTH rating ([6]; rate 0.100 kg/ha) | ABUTH rating ([6]; rate 0.400 kg/ha) | IPOHE rating ([11]; rate 0.025 kg/ha) | GALAP rating ([16]; rate 0.025 kg/ha)
3 (3 - Moderate effect): TRZAW rating ([1]; rate 0.400 kg/ha) | GLXMA rating ([2]; rate 0.100 kg/ha)
complete control: weed control (in words) (eight weed species)
2 (2 - Slight effect): TRZAW rating ([1]; rate 0.100 kg/ha) | GLXMA rating ([2]; rate 0.025 kg/ha) | ZEAMX rating (Zea mays (ZEAMX, maize); rate 0.025 kg/ha) | GALAP rating ([8]; rate 0.025 kg/ha)
1 (1 - Trace effect): TRZAW rating ([1]; rate 0.025 kg/ha)
4 (4 - Injury): GLXMA rating ([2]; rate 0.400 kg/ha) | ZEAMX rating (Zea mays (ZEAMX, maize); rate 0.100 kg/ha) | ALOMY rating ([10]; rate 0.025 kg/ha)
8 (8 - Approaching complete kill): LOLMU rating [3] | IPOHE rating ([4]; rate 0.025 kg/ha) | IPOHE rating ([4]; rate 0.100 kg/ha) | MATIN rating ([7]; rate 0.400 kg/ha) | GALAP rating ([8]; rate 0.400 kg/ha) | SETVI rating ([9]; rate 0.100 kg/ha) | SETVI rating ([9]; rate 0.400 kg/ha) | ALOMY rating ([10]; rate 0.400 kg/ha) | ABUTH rating ([13]; rate 0.025 kg/ha) | GALAP rating ([16]; rate 0.100 kg/ha) | GALAP rating ([16]; rate 0.400 kg/ha)
5 (5 - Definite injury): ZEAMX rating (Zea mays (ZEAMX, maize); rate 0.400 kg/ha) | ABUTH rating ([6]; rate 0.025 kg/ha) | MATIN rating ([7]; rate 0.025 kg/ha) | GALAP rating ([8]; rate 0.100 kg/ha) | SETVI rating ([9]; rate 0.025 kg/ha)
7 (7 - Good herbicidal effect): MATIN rating ([7]; rate 0.100 kg/ha) | ALOMY rating ([10]; rate 0.100 kg/ha) | ECHCG rating ([12]; rate 0.025 kg/ha) | ALOMY rating ([18]; rate 0.025 kg/ha)
9 (9 - Complete kill): IPOHE rating ([4]; rate 0.400 kg/ha) | ECHCG rating ([5]; rate 0.100 kg/ha) | ECHCG rating ([5]; rate 0.400 kg/ha) | IPOHE rating ([11]; rate 0.100 kg/ha) | IPOHE rating ([11]; rate 0.400 kg/ha) | ECHCG rating ([12]; rate 0.100 kg/ha) | ECHCG rating ([12]; rate 0.400 kg/ha) | ABUTH rating ([13]; rate 0.100 kg/ha) | ABUTH rating ([13]; rate 0.400 kg/ha) | STEME rating ([14]; rate 0.025 kg/ha) | STEME rating ([14]; rate 0.100 kg/ha) | STEME rating ([14]; rate 0.400 kg/ha) | MATIN rating ([15]; rate 0.025 kg/ha) | MATIN rating ([15]; rate 0.100 kg/ha) | MATIN rating ([15]; rate 0.400 kg/ha) | SETVI rating ([17]; rate 0.025 kg/ha) | SETVI rating ([17]; rate 0.100 kg/ha) | SETVI rating ([17]; rate 0.400 kg/ha) | ALOMY rating ([18]; rate 0.100 kg/ha) | ALOMY rating ([18]; rate 0.400 kg/ha)

Cc1cc(OCCSC(F)(F)F)nc(Oc2ccnc(C(F)(F)F)c2)c1 [Example 51]
3 (3 - Moderate effect): ZEAMX rating (Zea mays (ZEAMX, maize); rate 0.025 kg/ha)
9 (9 - Complete kill): IPOHE rating ([4]; rate 0.025 kg/ha) | IPOHE rating ([4]; rate 0.100 kg/ha) | IPOHE rating ([4]; rate 0.400 kg/ha) | ECHCG rating ([5]; rate 0.025 kg/ha) | ECHCG rating ([5]; rate 0.100 kg/ha) | ECHCG rating ([5]; rate 0.400 kg/ha) | STEME rating ([19]; rate 0.100 kg/ha) | STEME rating ([19]; rate 0.400 kg/ha) | GALAP rating ([8]; rate 0.100 kg/ha) | GALAP rating ([8]; rate 0.400 kg/ha) | SETVI rating ([9]; rate 0.100 kg/ha) | SETVI rating ([9]; rate 0.400 kg/ha) | IPOHE rating ([11]; rate 0.025 kg/ha) | IPOHE rating ([11]; rate 0.100 kg/ha) | IPOHE rating ([11]; rate 0.400 kg/ha) | ECHCG rating ([12]; rate 0.100 kg/ha) | ECHCG rating ([12]; rate 0.400 kg/ha) | ABUTH rating ([13]; rate 0.025 kg/ha) | ABUTH rating ([13]; rate 0.100 kg/ha) | ABUTH rating ([13]; rate 0.400 kg/ha) | STEME rating ([14]; rate 0.025 kg/ha) | STEME rating ([14]; rate 0.100 kg/ha) | STEME rating ([14]; rate 0.400 kg/ha) | MATIN rating ([15]; rate 0.100 kg/ha) | MATIN rating ([15]; rate 0.400 kg/ha) | SETVI rating ([17]; rate 0.400 kg/ha)
7 (7 - Good herbicidal effect): ABUTH rating ([6]; rate 0.025 kg/ha) | ALOMY rating ([10]; rate 0.100 kg/ha) | ECHCG rating ([12]; rate 0.025 kg/ha)
4 (4 - Injury): TRZAW rating ([1]; rate 0.100 kg/ha) | GLXMA rating ([2]; rate 0.025 kg/ha) | ZEAMX rating (Zea mays (ZEAMX, maize); rate 0.100 kg/ha) | MATIN rating ([7]; rate 0.025 kg/ha) | ALOMY rating ([10]; rate 0.025 kg/ha)
6 (6 - Herbicidal effect): TRZAW rating ([1]; rate 0.400 kg/ha) | GLXMA rating ([2]; rate 0.400 kg/ha) | MATIN rating ([7]; rate 0.100 kg/ha) | GALAP rating ([8]; rate 0.025 kg/ha)
5 (5 - Definite injury): GLXMA rating ([2]; rate 0.100 kg/ha) | ZEAMX rating (Zea mays (ZEAMX, maize); rate 0.400 kg/ha)
2 (2 - Slight effect): TRZAW rating ([1]; rate 0.025 kg/ha)
8 (8 - Approaching complete kill): LOLMU rating [3] | ABUTH rating ([6]; rate 0.100 kg/ha) | ABUTH rating ([6]; rate 0.400 kg/ha) | STEME rating ([19]; rate 0.025 kg/ha) | MATIN rating ([7]; rate 0.400 kg/ha) | SETVI rating ([9]; rate 0.025 kg/ha) | ALOMY rating ([10]; rate 0.400 kg/ha) | MATIN rating ([15]; rate 0.025 kg/ha) | GALAP rating ([16]; rate 0.025 kg/ha) | GALAP rating ([16]; rate 0.100 kg/ha) | GALAP rating ([16]; rate 0.400 kg/ha) | SETVI rating ([17]; rate 0.025 kg/ha) | SETVI rating ([17]; rate 0.100 kg/ha) | ALOMY rating ([18]; rate 0.025 kg/ha) | ALOMY rating ([18]; rate 0.100 kg/ha) | ALOMY rating ([18]; rate 0.400 kg/ha)
